Data: patent publication US11214594B2, “Antimicrobial peptide having synergistic antibacterial effect with antibiotics on multidrug resistant bacteria, and use thereof” (priority 2016, dated 2022)
In brackets after ≈: the same amount, converted by molar mass. Read-outs that look alike come from different tables or passages of the source. Where a SMILES comes first, the peptide text is derived from it.

Tests used:
MDREC 1229 = assay type: cell-based, Escherichia coli
Outline: (§1)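 Strains in MH medium at 2×10^6 CFU/ml were mixed with peptide diluted stepwise (2:1) from its MIC, then antibiotic dilutions in MH medium were added to give the antibiotic MIC. The reversed set-up, peptide titrated against fixed antibiotic, gave the peptide MIC.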

E. coli [1] = assay type: cell-based, Escherichia coli; conditions: E. coli
Outline: as §1

P. aeruginosa = experiment: microbe, parasite or virus in culture; assay type: cell-based, Pseudomonas aeruginosa
Outline: (§2)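 MIC read-out = lowest peptide level with no bacterial proliferation. Strains diluted in MH medium to 2×10^6 CFU; peptide twofold serial dilutions in MH added 1:1 in microtiter wells.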

A. baumannii = experiment: MIC of antibiotic during combined treatment with antimicrobial peptide; assay type: cell-based, Acinetobacter baumannii; conditions: for Antibiotic MIC, Erythromycin / Antibiotic MIC, Linezolid / Antibiotic MIC, Vancomycin: A. baumannii
Outline: (§3)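 Read-out is the MIC of each combined solution, obtained from MH-medium dilutions of antibiotic added well by well, with a reversed-condition run as well.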

S. epidermidis = experiment: microbe, parasite or virus in culture; assay type: cell-based, Staphylococcus epidermidis
Outline: as §2

E. coli [2] = experiment: MIC of antibiotic during combined treatment with antimicrobial peptide; assay type: cell-based, Escherichia coli; conditions: for Antibiotic MIC, Erythromycin / Antibiotic MIC, Linezolid / Antibiotic MIC, Vancomycin: E. coli
Outline: as §3

[3] = with Erythromycin […] (Conc./MIC 1)
[4] = combined with peptide at 1 μg/ml
[5] = combined with peptide at 2 μg/ml
[6] = combined with peptide at 4 μg/ml
[7] = combined with peptide at 6 μg/ml
[8] = combined with peptide at 8 μg/ml
[9] = combined with peptide at 16 μg/ml
[10] = combined with peptide at 32 μg/ml
[11] = combined with peptide at 64 μg/ml

## CC[C@H](C)[C@H](NC(=O)[C@H](CCCCN)NC(=O)[C@H](Cc1c[nH]c2ccccc12)NC(=O)[C@@H](N)CCCNC(=N)N)C(=O)N[C@@H](Cc1ccccc1)C(=O)N[C@@H](CCCCN)C(=O)N[C@@H](CCCCN)C(=O)N[C@H](C(=O)N1CCC[C@H]1C(=O)N[C@@H](CCCCN)C(=O)N[C@@H](Cc1ccccc1)C(=O)N[C@@H](CC(C)C)C(=O)N[C@@H](Cc1c[nH]cn1)C(=O)N[C@@H](CO)C(=O)N[C@@H](CC(C)C)C(=O)N[C@@H](CCCCN)C(=O)N[C@@H](CCCCN)C(=O)N[C@@H](Cc1ccccc1)C(N)=O)[C@@H](C)CC [PapMA-6, RWK IFK KIP KFL HSL KKF-NH2] (H-RWKIFKKIPKFLHSLKKF-NH2; N-terminus assumed)
MDREC 1229; [3]
  Peptide MIC: 0 mg/L
MDREC 1229; with Linezolid 512 μg/ml (Conc./MIC 1)
  Peptide MIC: 0 mg/L
E. coli [1]; [3]
  Peptide MIC: 0 mg/L
E. coli [1]; with Linezolid […] (Conc./MIC 1)
  Peptide MIC: 0 mg/L
E. coli [1]; with Vancomycin 1024 μg/ml (Conc./MIC 1)
  Peptide MIC: 0 mg/L
P. aeruginosa
  Minimal inhibitory concentration MIC: 16 mg/L (≈ 6.83 µM)
P. aeruginosa; P. aeruginosa and S. typhimurium
  Antibacterial activity (in words): significantly increased
A. baumannii; A. baumannii and MDRAB 12035
  Synergistic effect of antibacterial activity with existing antibiotics compared with PapMA-1: higher level than the PapMA-1 peptide
A. baumannii; [4]
  Antibiotic MIC, Erythromycin: 16 mg/L
  Antibiotic MIC, Linezolid: 128 mg/L
  Antibiotic MIC, Vancomycin: >128 mg/L
A. baumannii; [5]
  Antibiotic MIC, Erythromycin: 8 mg/L
  Antibiotic MIC, Linezolid: 64 mg/L
  Antibiotic MIC, Vancomycin: 128 mg/L
A. baumannii; [6]
  Antibiotic MIC, Erythromycin: 4 mg/L
  Antibiotic MIC, Linezolid: 8 mg/L
  Antibiotic MIC, Vancomycin: 16 mg/L
A. baumannii; [7]
  Antibiotic MIC, Erythromycin: 2 mg/L
  Antibiotic MIC, Linezolid: 4 mg/L
  Antibiotic MIC, Vancomycin: 8 mg/L
A. baumannii; [8]
  Antibiotic MIC, Erythromycin: 0.125 mg/L
  Antibiotic MIC, Linezolid: 2 mg/L
  Antibiotic MIC, Vancomycin: 4 mg/L
A. baumannii; [9]
  Antibiotic MIC, Erythromycin: 0.0625 mg/L
  Antibiotic MIC, Linezolid: 0.5 mg/L
  Antibiotic MIC, Vancomycin: 2 mg/L
A. baumannii; [10]
  Antibiotic MIC, Erythromycin: 0 mg/L
  Antibiotic MIC, Linezolid: 0 mg/L
  Antibiotic MIC, Vancomycin: 0 mg/L
A. baumannii; [11]
  Antibiotic MIC, Erythromycin: 0 mg/L
  Antibiotic MIC, Linezolid: 0 mg/L
  Antibiotic MIC, Vancomycin: 0 mg/L
S. epidermidis
  Minimal inhibitory concentration MIC: >128 mg/L
E. coli [2]; E. coli and MDREC1229
  Synergistic effect of antibacterial activity with existing antibiotics compared with PapMA-1: higher level than the PapMA-1 peptide
E. coli [2]; erythromycin combined with peptide at 1 μg/ml
  Antibiotic MIC, Erythromycin: 64 mg/L
E. coli [2]; erythromycin combined with peptide at 2 μg/ml
  Antibiotic MIC, Erythromycin: 64 mg/L
E. coli [2]; erythromycin combined with peptide at 4 μg/ml
  Antibiotic MIC, Erythromycin: 8 mg/L
E. coli [2]; erythromycin combined with peptide at 6 μg/ml
  Antibiotic MIC, Erythromycin: 4 mg/L
E. coli [2]; erythromycin combined with peptide at 8 μg/ml
  Antibiotic MIC, Erythromycin: 0.5 mg/L
E. coli [2]; erythromycin combined with peptide at 16 μg/ml
  Antibiotic MIC, Erythromycin: 0.25 mg/L
E. coli [2]; erythromycin combined with peptide at 32 μg/ml
  Antibiotic MIC, Erythromycin: 0.125 mg/L
E. coli [2]; erythromycin combined with peptide at 64 μg/ml
  Antibiotic MIC, Erythromycin: 0 mg/L
E. coli [2]; linezolid combined with peptide at 1 μg/ml
  Antibiotic MIC, Linezolid: >128 mg/L
E. coli [2]; linezolid combined with peptide at 2 μg/ml
  Antibiotic MIC, Linezolid: >128 mg/L
E. coli [2]; linezolid combined with peptide at 4 μg/ml
  Antibiotic MIC, Linezolid: 32 mg/L
E. coli [2]; linezolid combined with peptide at 6 μg/ml
  Antibiotic MIC, Linezolid: 8 mg/L
E. coli [2]; linezolid combined with peptide at 8 μg/ml
  Antibiotic MIC, Linezolid: 8 mg/L
E. coli [2]; linezolid combined with peptide at 16 μg/ml
  Antibiotic MIC, Linezolid: 2 mg/L
E. coli [2]; linezolid combined with peptide at 32 μg/ml
  Antibiotic MIC, Linezolid: 2 mg/L
E. coli [2]; linezolid combined with peptide at 64 μg/ml
  Antibiotic MIC, Linezolid: 0 mg/L
E. coli [2]; vancomycin combined with peptide at 1 μg/ml
  Antibiotic MIC, Vancomycin: >128 mg/L
E. coli [2]; vancomycin combined with peptide at 2 μg/ml
  Antibiotic MIC, Vancomycin: >128 mg/L
E. coli [2]; vancomycin combined with peptide at 4 μg/ml
  Antibiotic MIC, Vancomycin: 32 mg/L
E. coli [2]; vancomycin combined with peptide at 6 μg/ml
  Antibiotic MIC, Vancomycin: 16 mg/L
E. coli [2]; vancomycin combined with peptide at 8 μg/ml
  Antibiotic MIC, Vancomycin: 8 mg/L
